Blank lines part the entries; values can stand above or below the substance they belong to.
Test system: IgE antibodies from patients
Assay: Wheat epitope mapping (2): overlapping 10-amino-acid peptide fragments shifted by one amino acid;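 as to Rank of partial sequence as epitope binding to IgE antibody: key = sequence deemed particularly important within the common 15-residue sequence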;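 as to epitope sequence binding to IgE antibody, rank (Key/Preferably/More preferably): key of grades: preferably = shorter partial sequence still acting as epitope; more preferably = sequence improving IgE binding; key = particularly important sequence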
Type: binding, human
Description: The peptides to be synthesized were shifted by one amino acid.
The library was prepared by the same procedure as described above in (A), and the presence or absence of binding of an IgE antibody present in the serum of a patient to each peptide fragment was measured by the same technique as described above. Numeric values determined from images obtained as a result of carrying out only the procedures (1) and (4) to (6) described above in the subsection titled (3) Spotting of cellulose-bound peptide solution were used as control values. The control value of each peptide was subtracted from numeric values determined from images obtained from results about the serum of patients, and the obtained value of the difference was compared with values of the peptides serving as the basis of overlapping.
Chemiluminescence intensity in images obtained by measurement was converted into a numeric value in the same manner as in (A). Numeric values determined from images obtained as a result of carrying out only the procedures (1) and (4) to (6) described above in the subsection titled (3) Spotting of cellulose-bound peptide solution (secondary antibody measurement values) were used as control values. The control value of each peptide was subtracted from numeric values determined from images obtained from results about the serum of patients. When values obtained using the sequences (SEQ ID NOs: 29, 131, 191, 281, 346, 414, 493, 562, 640, 706, 776, 899, 974, 1010, 1089, 1142, 1166, 1209, 1257, 1297, 1367, 1403, 1508, 1566, 1598, 1608, 1685, 1753, 1789, 1836, 1895, 1977, 2004, 2027, 2068, 2154, 2217, 2265, 2309, 2342, 2419, 2491, 2545, 2613, 2631, 2674, 2701, 2774, 2809 and 2830) serving as the basis of overlapping were defined as 100%, it was determined that: a peptide having a value of the difference that was less than 30% had no binding activity against IgE antibodies; a peptide having a value of the difference that was 30% or more and less than 50% had binding activity, albeit poor, against IgE antibodies; a peptide having a value of the difference that was 50% or more and less than 70% had binding activity, albeit somewhat poor, against IgE antibodies; and a peptide having a value of the difference that was 70% or more had equivalent or good binding activity against IgE antibodies and was thus a peptide had remaining binding activity against IgE antibodies.

[1] = serum of patient P34 (WDEIA), sequence without X

Substance: 1494 (YLQPQQPISQ; REGION 1..10: note = epitope) [compound 1494]
Rank of partial sequence as epitope binding to IgE antibody (serum of patient G6 (adult, general immediate type allergy to wheat), sequence without X): Preferably

Substance: 1616 (FVPISG; REGION 1..6: note = epitope) [compound 1616]
Rank of partial sequence as epitope binding to IgE antibody (serum of patient P17 (WDEIA), sequence without X): Key

Substance: 1206 (QQFPPQQP; REGION 1..8: note = epitope) [compound 1206]
Epitope sequence binding to IgE antibody, rank of the sequence [1]: Preferably

Substance: 1706 (EAANFT; REGION 1..6: note = epitope) [compound 1706]
Rank of partial sequence as epitope binding to IgE antibody (serum of patient P29 (WDEIA), sequence without X): Key

Substance: 1619 (FVPISG; REGION 1..6: note = epitope) [compound 1619]
Rank of partial sequence as epitope binding to IgE antibody (serum of patient P21 (WDEIA), sequence without X): Key

Substance: 1415 (YLQPQQPIS; REGION 1..9: note = epitope) [compound 1415]
Epitope sequence binding to IgE antibody, rank of the sequence (serum of patient P4 (WDEIA), sequence without X): Key

Substance: 1621 (YNPD; REGION 1..4: note = epitope) [compound 1621]
Rank of partial sequence as epitope binding to IgE antibody (serum of patient P24 (WDEIA), sequence without X): Key

Substance: 1594 (QPQQPFP; REGION 1..7: note = epitope) [compound 1594]
Rank of partial sequence as epitope binding to IgE antibody (serum of patient P52 (child, general immediate type allergy to wheat), sequence without X): Further preferably

Substance: 1502 (LQPQQP; REGION 1..6: note = epitope) [compound 1502]
Rank of partial sequence as epitope binding to IgE antibody (serum of patient G7 (adult, general immediate type allergy to wheat), sequence without X): Key

Substance: 1747 (EAANFT; REGION 1..6: note = epitope) [compound 1747]
epitope sequence binding to IgE antibody, rank (Key/Preferably/More preferably) (serum of patient G5 (adult, general immediate type allergy to wheat)): Key

Substance: 1482 (YLQPQQPISQ; REGION 1..10: note = epitope) [compound 1482]
Rank of partial sequence as epitope binding to IgE antibody [1]: More preferably

Substance: 1752 (ANFTSQVIIM; REGION 1..10: note = epitope) [compound 1752]
epitope sequence binding to IgE antibody, rank (Key/Preferably/More preferably) (serum of patient G8 (adult, general immediate type allergy to wheat)): Key

Results, then the substance that gave them:

epitope sequence binding to IgE antibody, rank (Key/Preferably/More preferably) (serum of patient P19 (WDEIA)): Preferably
Substance: 1937 (QQFPGQQQ; REGION 1..8: note = epitope) [compound 1937]

epitope sequence binding to IgE antibody, rank (Key/Preferably/More preferably) (serum of patient P24 (WDEIA)): Key
Substance: 1952 (QFPGQQ; REGION 1..6: note = epitope) [compound 1952]

epitope sequence binding to IgE antibody, rank (Key/Preferably/More preferably) (serum of patient G9 (adult, general immediate type allergy to wheat)): Key
Substance: 1788 (LKKVGYNP; REGION 1..8: note = epitope) [compound 1788]

epitope sequence binding to IgE antibody, rank (Key/Preferably/More preferably) (serum of patient P12 (WDEIA)): Preferably
Substance: 1923 (QQFPGQQQ; REGION 1..8: note = epitope) [compound 1923]

Epitope sequence binding to IgE antibody, rank of the sequence (serum of patient P25 (WDEIA), partial sequence): Key
Substance: 2721 (GIGTVPVG; REGION 1..8: note = epitope) [compound 2721]

Epitope sequence binding to IgE antibody, rank of the sequence (Key/Preferably/More preferably) [1]: Key
Substance: 2293 (ERFE; REGION 1..4: note = epitope) [compound 2293]

Epitope sequence binding to IgE antibody, rank of the sequence (Key/Preferably/More preferably) (serum of patient P30 (WDEIA), sequence without X): Key
Substance: 2235 (SRLLRGIRN; REGION 1..9: note = epitope) [compound 2235]

epitope sequence binding to IgE antibody, rank (Key/Preferably/More preferably) (serum of patient P22 (WDEIA)): Key
Substance: 1807 (PKFLKNG; REGION 1..7: note = epitope) [compound 1807]

Epitope sequence binding to IgE antibody, rank of the sequence (serum of patient G8 (adult, general immediate type allergy to wheat), partial sequence): Key
Substance: 2699 (YKGPTL; REGION 1..6: note = epitope) [compound 2699]

epitope sequence binding to IgE antibody, rank (Key/Preferably/More preferably) (serum of patient P31 (WDEIA)): Preferably
Substance: 1876 (VRTLQRT; REGION 1..7: note = epitope) [compound 1876]

Epitope sequence binding to IgE antibody, rank of the sequence (serum of patient P34 (WDEIA), partial sequence): Key
Substance: 2591 (QLVQQL; REGION 1..6: note = epitope) [compound 2591]

Epitope sequence binding to IgE antibody, rank of the sequence (serum of patient P15 (WDEIA), partial sequence): Key
Substance: 2503 (SSQVSF; REGION 1..6: note = epitope) [compound 2503]

Epitope sequence binding to IgE antibody, rank of the sequence (serum of patient P8 (WDEIA), partial sequence): Key
Substance: 2501 (SFQPSQLNPQ; REGION 1..10: note = epitope) [compound 2501]

epitope sequence binding to IgE antibody, rank (Key/Preferably/More preferably) (serum of patient P15 (WDEIA)): Preferably
Substance: 1798 (EALPKFLKN; REGION 1..9: note = epitope) [compound 1798]

epitope sequence binding to IgE antibody, rank (Key/Preferably/More preferably) (serum of patient P4 (WDEIA)): Preferably
Substance: 1904 (QVPLVQQ; REGION 1..7: note = epitope) [compound 1904]

Epitope sequence binding to IgE antibody, rank of the sequence (serum of patient P32 (WDEIA), partial sequence): Key
Substance: 2586 (LQQSTYQL; REGION 1..8: note = epitope) [compound 2586]

Source: patent US20240393292A1, “ALLERGY ANTIGEN AND EPITOPE THEREOF” (HOYU CO., LTD., priority 2019, published 2024)
